Assay results published in patent US10160748B2 (AbbVie Inc., priority 2015, dated 2018).
pIC50: −log10 of the molar value.

target: TNFα trimer (Homo sapiens, UniProt P01375); assay: TNFα FP Competitive Binding Assay; details: FP binding assay; 20 nM TNFα trimer, 1 nM OregonGreen488 probe; read-out: TNF IC50
Description: TNFα FP Competitive Binding Assay
• 1. Assay Buffer: Prepare 1× Assay Buffer (Water with 47 mM HEPES, 47 mM NaCl, 0.9 mM EDTA, 0.0071% Triton X-100) by adding 25 mL of 1 M HEPES, 5 mL of 5 M NaCl, 1 mL of 0.5 M EDTA, and 375 μL of a 10% Triton X-100 stock to a fresh 500 mL bottle of water. • 2. Assay Mixture: Prepare fresh Assay Mixture containing 20 nM TNFα trimer (60 nM protein) and 1 nM 2′,7′-difluoro-3′,6′-dihydroxy-N-(2-(2-(2-((4-(isoquinolin-8-yl)-3-(4-(isoquinolin-8-yl)phenethoxy)benzyl)oxy)ethoxy)ethoxy)ethyl)-3-oxo-3H-spiro[isobenzofuran-1,9′-xanthene]-5-carboxamide probe in 1× Assay Buffer. Compound Plate Preparation Manual 12-Point 1:3 Dilution Plates: (384 Well Polypropylene Plates)
Top concentration of compounds, 10 mM in DMSO, dispensed in rows A-O in columns 1 and 13. Compounds are serially diluted 1:3 with DMSO in columns 2-12 or 14-24 using a 16-channel Matrix pipettor. Plates stored at −20° C.
Discovery Preps 12-Point 1:3 Dilution Plates: (384 Well Assay Plates)
Top concentration, 5 mM in DMSO, of compounds placed in rows A-O in columns 1 and 13. Compounds are serially diluted 1:3 with DMSO in columns 2-12 or 14-24. Compound solutions are dispensed into replicate assay plates at 410 nL per well. Plates stored at 4° C.
TNFα FP Competitive Binding Assay Protocol
• 1. Compound plates warmed to rt. • 2. Fresh Assay Mixture is prepared. • 3. Assay Mixture (20 μL) is dispensed each well of 384 assay plates using a Thermo Multidrop Combi or 16-channel Matrix pipettor. If Manual 12-point 1:3 Dilution Plates are to be tested, Assay Mix is dispensed into empty plates. Discovery Preps 12-point 1:3 Dilution Plates already contain 410 nL compound solution in DMSO. • 4. For Manual 12-point 1:3 Dilution Plates, 0.7 μL is manually transferred using a 16-channel Matrix pipettor to replicate assay plates containing 20 μL Assay Mixture for a final top compound concentration of 338 μM (3.4% DMSO). • 5. For Discovery Preps 12-point 1:3 Dilution Plates, 20 μL Assay Mixture added the 410 nL compound solution already in the plates yields a final top compound concentration of 100 μM (2.0% DMSO). • 6. Background subtraction controls are wells P1-P8 containing only Assay Buffer. The low % inhibition controls are wells P9-P16 containing only Assay Mix. The high % inhibition are wells P17-P24 containing only 1 nM 2′,7′-difluoro-3′,6′-dihydroxy-N-(2-(2-(2-((4-(isoquinolin-8-yl)-3-(4-(isoquinolin-8-yl)phenethoxy)benzyl)oxy)ethoxy)ethoxy)ethyl)-3-oxo-3H-spiro[isobenzofuran-1,9′-xanthene]-5-carboxamide probe in 1× Assay Buffer. • 7. Plates are incubated at rt for 18-24 h in 37° C. incubator (CO2 is off). • 8. Prior to reading the assay, the plates are placed in a dark cabinet to equilibrate at rt for one hour. • 9. Background-subtracted fluorescence polarization (mP) is measured using a PerkinElmer Envision plate reader. • 10. Raw data is entered into Assay Explorer and dose-response curves are generated using a variable slope curve. Supplies, Materials, and Reagents

Chain of TNFα trimer (P01375 77-233 limits assumed): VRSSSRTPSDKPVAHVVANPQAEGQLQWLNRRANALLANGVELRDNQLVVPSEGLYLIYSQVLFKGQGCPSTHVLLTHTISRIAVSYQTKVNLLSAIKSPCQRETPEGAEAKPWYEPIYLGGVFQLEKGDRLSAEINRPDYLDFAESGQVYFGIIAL

First: Cn1c(=O)c2ccc(-c3nsc(N4CCOCC4)n3)cc2n1Cc1ccccc1OC(F)F [Example 10.5]
Second: Cn1c(=O)c2ccc(-c3nc(N4CCOCC4)no3)cc2n1Cc1ccccc1OC(F)F [Example 13, 1-(2-(Difluoromethoxy)benzyl)-2-methyl-6-(3-morpholino-1,2,4-oxadiazol-5-yl)-1H-indazol-3(2H)-one]
The pIC50 of the first is lower: under 5.00 for the first, 5.00 to 6.00 for the second.

`C[C@@H]1CN(c2ncc(-c3ccc4c(=O)n(C)n(Cc5ccccc5OC(F)F)c4c3)cn2)CCN1C(=O)CO` [Example 10.6, (R)-1-(2-(difluoromethoxy)benzyl)-6-(2-(4-(2-hydroxyacetyl)-3-methylpiperazin-1-yl)pyrimidin-5-yl)-2-methyl-1H-indazol-3(2H)-one] and `C[C@@H]1CN(c2ncc(-c3ccc4c(=O)n(C)n(Cc5ccccc5OC(F)F)c4c3)cn2)CCN1C(=O)C(O)CN` (stereo partly drawn) [Example 14.8] cannot be ordered by pIC50: over 6.00 for the first, over 6.00 for the second.

`C[C@@H]1C[C@H](O)CCN1c1ncc(-c2ccc3c(=O)n(C)n(Cc4ccccc4OC(F)F)c3c2)cn1` [Example 10.9] and `CC(=O)N1CCN(c2ncc(-c3ccc4c(=O)n(C)n(Cc5ccccc5OC(F)F)c4c3)cn2)[C@H](C)C1` [Example 10.16] cannot be ordered by pIC50: over 6.00 for the first, over 6.00 for the second.

`Cc1nc(N2CCN(C(=O)CO)C[C@H]2C)ncc1-c1ccc2c(=O)n(C)n(Cc3ccccc3OC(F)F)c2c1` [Example 10.10] and `C[C@@H]1CN(C(=O)CO)CCN1c1ncc(-c2ccc3c(=O)n(C)n(Cc4ccccc4OC(F)F)c3c2)cn1` [Example 10.14] cannot be ordered by pIC50: over 6.00 for the first, over 6.00 for the second.

Compared with `Cn1c(=O)c2ccc(-c3ccnc(OC4CCOCC4)c3)cc2n1Cc1ccccc1OC(F)F` [Example 10.11], `Cn1c(=O)c2ccc(-c3ccnc(OC4CCCOC4)c3)cc2n1Cc1ccccc1OC(F)F` (stereo not drawn) [Example 10.13] is lower in pIC50: over 6.00 for the first, 5.00 to 6.00 for the second. The first is the more potent here.

`CC(=O)N1CCC(Oc2cc(-c3ccc4c(=O)n(C)n(Cc5ccccc5OC(F)F)c4c3)ccn2)CC1` [Example 10.12] and `Cn1c(=O)c2ccc(-c3ccc(N4CCNCC4)nc3)cc2n1Cc1ccccc1OC(F)F` [Example 14.1] fall in the same range of pIC50: 5.00 to 6.00 for the first, 5.00 to 6.00 for the second.

`CN(C)c1ncc(-c2ccc3c(=O)n(C)n(Cc4ccccc4OC(F)F)c3c2)cn1` [Example 10.15] and `Cn1c(=O)c2ccc(-c3cnc(CC4(C)COC4)nc3)cc2n1Cc1ccccc1OC(F)F` [Example 12, 1-(2-(Difluoromethoxy)benzyl)-2-methyl-6-(2-((3-methyloxetan-3-yl)methyl)pyrimidin-5-yl)-1H-indazol-3(2H)-one] fall in the same range of pIC50: 5.00 to 6.00 for the first, 5.00 to 6.00 for the second.

`C[C@H]1CN(C(=O)CO)CCN1c1ncc(-c2ccc3c(=O)n(C)n(Cc4ccccc4OC(F)F)c3c2)cn1` [Example 10.17] and `CC(C)[C@H](N)C(=O)OCC(=O)N1CCN(c2ncc(-c3ccc4c(=O)n(C)n(Cc5ccccc5OC(F)F)c4c3)cn2)C[C@H]1C` [Example 14.12] cannot be ordered by pIC50: over 6.00 for the first, over 6.00 for the second.

First: O=c1c2ccc(-c3cnc(N4CCOCC4)nc3)cc2n(Cc2ccccc2OC(F)F)n1C1CC1 [Example 11, 2-Cyclopropyl-1-(2-(difluoromethoxy)benzyl)-6-(2-morpholinopyrimidin-5-yl)-1H-indazol-3(2H)-one]
Second: Cn1c(=O)c2ncc(-c3cnc(N4CCOCC4)nc3)cc2n1Cc1ccccc1OC(F)F [Example 14, 1-(2-(Difluoromethoxy)benzyl)-2-methyl-6-(2-morpholinopyrimidin-5-yl)-1H-pyrazolo[4,3-b]pyridin-3(2H)-one]
The pIC50 of the first is higher: 5.00 to 6.00 for the first, under 5.00 for the second. The first is the more potent here.

`Cn1c(=O)c2ccc(-c3ccnc(N4CCOCC4)c3)cc2n1Cc1cccc(F)c1` [Example 11.1] and `Cn1c(=O)c2ccc(-c3cnn(C4CCOCC4)c3)cc2n1Cc1cccc(F)c1` [Example 11.2] cannot be ordered by pIC50: under 5.00 for the first, under 5.00 for the second.

`Cn1c(=O)c2ccc(-c3cnc(N4CCOCC4)nc3)cc2n1-c1cc(Cl)ccc1Cl` [Example 12.1] and `Cn1c(=O)c2ccc(-c3cnc(N4CCNCC4)nc3)cc2n1Cc1cc(Cl)ccc1Cl` [Example 14.2] fall in the same range of pIC50: 5.00 to 6.00 for the first, 5.00 to 6.00 for the second.

Compared with `Cc1cc2c(=O)n(C)n(Cc3ccccc3OC(F)F)c2cc1-c1cnc(N2CCOCC2)nc1` [Example 13.1], `Cc1cc2c(=O)n(C)n(Cc3ccccc3OC(F)F)c2cc1-c1cnc(N2CCC(C(=O)O)CC2)nc1` [Example 13.3] is lower in pIC50: over 6.00 for the first, 5.00 to 6.00 for the second.

`Cc1cc2c(=O)n(C)n(Cc3ccccc3OC(F)F)c2cc1-c1cnc(N2CCNC(=O)C2)nc1` [Example 13.2] and `Cc1ccc(OC(F)F)c(Cn2c3cc(-c4cnc(N5CCN[C@H](C)C5)nc4)ccc3c(=O)n2C)c1` [Example 14.5, (R)-1-(2-(difluoromethoxy)-5-methylbenzyl)-2-methyl-6-(2-(3-methylpiperazin-1-yl)pyrimidin-5-yl)-1H-indazol-3(2H)-one] fall in the same range of pIC50: 5.00 to 6.00 for the first, 5.00 to 6.00 for the second.

First: Cn1c(=O)c2ccc(-c3cnc(C4(O)CCN(C(=O)CN)CC4)nc3)cc2n1Cc1ccccc1OC(F)F [Example 14.3]
Second: Cc1ccc(OC(F)F)c(Cn2c3cc(-c4cnc(N5CCN(C(=O)CN)[C@@H](C)C5)nc4)ccc3c(=O)n2C)c1 [Example 14.7]
The pIC50 of the first is lower: 5.00 to 6.00 for the first, over 6.00 for the second. The second is the more potent here.

First: CC(C)[C@H](N)C(=O)OCc1ccc(OC(F)F)c(Cn2c3cc(-c4cnc(N5CCN6C(=O)OC[C@@H]6C5)nc4)ccc3c(=O)n2C)c1 [Example 14.4]
Second: CC(C)[C@H](N)C(=O)OCc1ccc(OC(F)F)c(Cn2c3cc(-c4cnc(N5CCN6C(=O)NC[C@@H]6C5)nc4)ccc3c(=O)n2C)c1 [Example 14.16]
The pIC50 of the first is lower: 5.00 to 6.00 for the first, over 6.00 for the second. The second is the more potent here.

`Cc1ccc(OC(F)F)c(Cn2c3cc(-c4cnc(N5CCN(C(=O)[C@H](C)N)[C@@H](C)C5)nc4)ccc3c(=O)n2C)c1` [Example 14.6] and `Cc1ccc(OC(F)F)c(Cn2c3cc(-c4cnc(N5CCN(C(=O)[C@H](C)N)[C@H](C)C5)nc4)ccc3c(=O)n2C)c1` [Example 14.11] cannot be ordered by pIC50: over 6.00 for the first, over 6.00 for the second.

`Cc1ccc(OC(F)F)c(Cn2c3cc(-c4cnc(N5CCN(C(=O)C(O)CN)[C@H](C)C5)nc4)ccc3c(=O)n2C)c1` (stereo partly drawn) [Example 14.9] and `Cc1ccc(OC(F)F)c(Cn2c3cc(-c4cnc(N5CCN(C(=O)CN)[C@H](C)C5)nc4)ccc3c(=O)n2C)c1` [Example 14.10] cannot be ordered by pIC50: over 6.00 for the first, over 6.00 for the second.

`CC(C)[C@@H](N)C(=O)OCC(=O)N1CCN(c2ncc(-c3ccc4c(=O)n(C)n(Cc5ccccc5OC(F)F)c4c3)cn2)C[C@H]1C` [Example 14.13] and `Cc1ccc(OC(F)F)c(Cn2c3cc(-c4cnc(N5CCN(C(=O)COC(=O)[C@@H](N)C(C)C)[C@H](C)C5)nc4)ccc3c(=O)n2C)c1` [Example 14.14] cannot be ordered by pIC50: over 6.00 for the first, over 6.00 for the second.

`C[C@H](N)C(=O)OCc1ccc(OC(F)F)c(Cn2c3cc(-c4cnc(N5CCN6C(=O)NC[C@@H]6C5)nc4)ccc3c(=O)n2C)c1` [Example 14.15] and `Cn1c(=O)c2ccc(-c3cnc(N4CCN5C(=O)NC[C@@H]5C4)nc3)cc2n1Cc1cc(CO)ccc1OC(F)F` [Example 16.1, (R)-7-(5-(1-(2-(difluoromethoxy)-5-(hydroxymethyl)benzyl)-2-methyl-3-oxo-2,3-dihydro-1H-indazol-6-yl)pyrimidin-2-yl)hexahydroimidazo[1,5-a]pyrazin-3(2H)-one] cannot be ordered by pIC50: over 6.00 for the first, over 6.00 for the second.

`Cn1c(=O)c2ccc(-c3cnc(N4CCOCC4)nc3)nc2n1Cc1ccccc1OC(F)F` [Example 15, 1-(2-(Difluoromethoxy)benzyl)-2-methyl-6-(2-morpholinopyrimidin-5-yl)-1H-pyrazolo[3,4-b]pyridin-3(2H)-one] and `Cn1c(=O)c2ccc(-c3cnc(C(C)(C)O)nc3)nc2n1Cc1ccccc1OC(F)F` [Example 16, 1-(2-(Difluoromethoxy)benzyl)-6-(2-(2-hydroxypropan-2-yl)pyrimidin-5-yl)-2-methyl-1H-pyrazolo[3,4-b]pyridin-3(2H)-one] fall in the same range of pIC50: 5.00 to 6.00 for the first, 5.00 to 6.00 for the second.

Compared with `Cc1ccc(OC(F)F)c(Cn2c3cc(-c4cnc(N5CCN6C(=O)NC[C@H]6C5)nc4)ccc3c(=O)n2C)c1` [Example 15.1], `CN1CCC(Nc2ncc(-c3ccc4c(=O)n(C)n(Cc5cc(CO)ccc5OC(F)F)c4c3)cn2)C1=O` (stereo not drawn) [Example 16.2] is lower in pIC50: over 6.00 for the first, 5.00 to 6.00 for the second.
